# Earlier results, collected in patent publication US20260335223A1, “Topical Copolymer Formulations for Hydrophobic Drug Delivery” (1376683 B.C. LTD, priority 2023, published 2026).
# Key:
# [1] = diblock copolymer micelles, background; cited from earlier work
# [2] = background statement; cited from earlier work
compound,measurement,setting,value
CC[C@@]1(O)C(=O)OCc2c1cc1n(c2=O)Cc2cc3ccccc3nc2-1 [camptothecin],Formation of drug-loaded micelles,[1],do not form drug-loaded micelles
same,Water solubility,[2],1 µg/mL
